# Test system: Plasmodium falciparum (3D7)
# Assay: Anti-malarial screen, parasite growth by SybrGreen staining
# Format: cell-based
# Settings: dose response assay, test molecules from 10 μM to 1 nM, 60 hours incubation, SybrGreen read out
# Procedure: Plasmodium falciparum (3D7; Malaria Research and Reference Reagent Resource Center ID NO: MRA-102) is cultured in the laboratory as per standard protocols. Briefly, P. falciparum is cultured using 2% hematocrit washed RBCs, separated from freshly collected human blood, in Roswell Park Memorial Institute (RPMI) medium containing glutamine, sodium bicarbonate and antibiotics. Parasites are synchronized using either 5% sorbitol treatment or by enriching late stage parasites using a 70% percol cushion. 200 μls of the diluted parasite culture at 2% parasitemia and 2% hematocrit, is added to each well in a 96 well plate pre-seeded with the compound of interest at the required concentration. In general, compounds being screened for the first time are tested at a single concentration of 10 μM to detect any effect they may have on parasite growth. The master stocks and dilutions of the compounds are prepared in cell culture grade DMSO. NOTE: DMSO only treatment control is done and the results are used for normalizing the data obtained from compound treatment. All compounds are plated in triplicates. Each 96 well plate also includes negative control (compound untreated culture) and positive control (standard anti-malarial treated culture). Standard anti-malarials used are chloroquine, artemisinine and atovaquone, each at 1 μM concentration. After plating, the culture is incubated in standard growth condition for 60 hours, after which the cultures are processed for testing the effect of compounds on parasite growth as given below. We have standardized a modified SybrGreen dye based staining protocol (Plouffe D et. al. in Proc Natl Acad Sci, 2008, 105(26), 9059-64) for estimating parasite growth. SybrGreen dye binds to DNA and only the DNA bound dye gives a specific fluorescence emission ([…]) when excited ([…]). Since only the parasites have DNA (as RBCs are devoid of nucleus), the SybrGreen signal is a direct indictor of parasite growth. We have standardized a plate reader based read out assay for quantifying relative parasite growth (or conversely % inhibition of growth) in untreated, standard anti-malarial treated and test molecules treated P. falciparum cultures. 25 μl of 10× staining solution (0.5% Triton X100 & 10× SybrGreen dye in phosphate buffered saline) is added to each sample in 96 well plate, mixed and incubated for 30 min before taking readings. Data obtained is then tabulated to compare parasite growth between untreated, standard anti-malarial treated and compound treated parasite cultures. Compounds showing greater than 80% reduction in parasite growth are selected from this primary screening for carrying out dose response analysis using the respective test molecules from 10 μM to 1 nM. Data from this experiment is used for the calculation of IC50 values for the respective test molecules. Data from the preliminary screen (at 10 μM only) is shown in FIG. 1 and data from the dose response experiment is shown in FIG. 2.
row,SMILES,IC50 [µM]
1,CC1=C[C@@H]2O[C@H](c3ccc(Cl)cc3)c3ccccc3N2c2ccccc21,3.8
2,Cc1cc2c(cc1C)N1c3ccccc3C=C[C@@H]1O[C@@H]2c1ccc(Cl)cc1,3.51
3,C1=CC2OC(c3ccccc3)(c3ccccc3)c3ccccc3N2c2ccccc21 (stereo not drawn),3.87
4,O=C1C=CC2(C=C1)OC1C=Cc3ccccc3N1c1ccccc12 (stereo not drawn),1.69
5,O=C(c1ccccc1)C1(c2ccccc2)OC2C=Cc3ccccc3N2c2ccccc21 (stereo not drawn),2.64
6,"O=C1C(O)=C([C@H]2CC[C@H](c3ccc(Cl)cc3)CC2)C(=O)c2ccccc21 [Atovaquone, reference compound]",0.00711

# Reference: US9206196B1, “Derivatives of benzoxazino quinoline, benzoxazino isoquinoline and processes for their preparation” (Council of Scientific & Industrial Research, priority 2014, dated 2015)
